Earlier results in publication PMC7366343 (Journal of the American Chemical Society, 2019).

Legend:
hTDO = hTDO (Homo sapiens, UniProt P48775); details: read-out: reported IC50 for hTDO
Sequence of hTDO (P48775 whole entry): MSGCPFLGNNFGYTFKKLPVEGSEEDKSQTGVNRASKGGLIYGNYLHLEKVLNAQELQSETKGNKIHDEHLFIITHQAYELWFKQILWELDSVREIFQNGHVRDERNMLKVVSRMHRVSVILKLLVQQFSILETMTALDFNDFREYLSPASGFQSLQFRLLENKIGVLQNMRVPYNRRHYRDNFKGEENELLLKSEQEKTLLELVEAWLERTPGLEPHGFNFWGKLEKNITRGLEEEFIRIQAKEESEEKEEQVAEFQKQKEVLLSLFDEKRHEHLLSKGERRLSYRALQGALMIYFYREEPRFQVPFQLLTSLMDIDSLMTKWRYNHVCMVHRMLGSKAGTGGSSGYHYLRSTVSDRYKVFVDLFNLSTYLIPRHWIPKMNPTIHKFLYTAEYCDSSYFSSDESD

blood-brain barrier crossing: able to cross the blood-brain barrier | IC50 (hTDO): > 50 µM
Structure (SMILES): O=C1CC(c2c[nH]c3ccc(F)cc23)C(=O)N1 (centres unmarked) [IPD, 3-(5-Fluoro-1H-indol-3-yl)pyrrolidine-2,5-dione]
